Structures can show the parent of a compound that is named as a salt.

The assay deals with T1, human Kv1.5 channels (Homo sapiens, UniProt P22460).
T1 construct: Full-length human Kv1.5 cDNA was cloned from a human heart cDNA library; expressed in transfected cells; host or cells: CHO-K1
The assay is described as follows: Measurement of human Kv1.5 channel current by whole-cell patch clamp method (human Kv1.5-expressing CHO-K1 cell line). The format is cell-based. The settings on record: human Kv1.5-expressing CHO-K1 cells, step end current at +40 mV, test compound 0.1, 1, 10 μM. As for the experimental part:
Pharmacological Test 1 (1) Production of Human Kv1.5-Expressing CHO-K1 Cell Lines
CHO-K1 cell lines stably expressing human Kv1.5 channels were prepared in the following manner.
Full-length human Kv1.5 cDNA was cloned from a human heart cDNA library (produced by Stratagene). The obtained human Kv1.5 sequence corresponds to the sequence described in FASEB J. 5, 331-337 (1991).
The obtained human Kv1.5 cDNA was inserted into a plasmid encoding a CMV promoter and a G418 resistance marker to produce a Kv1.5 expression vector. The human Kv1.5 expression vector was transfected into CHO-K1 cells by the lipofectamine method. After culturing the cells in an F-12 medium (produced by Invitrogen Corp.) containing 10% FBS (produced by Invitrogen Corp.) for 3 or 4 days, the medium was replaced with a FBS-containing F-12 medium that included 1,000 μg/ml of G418 (produced by Invitrogen Corp.), and single colonies were isolated. The amount of Kv1.5 channel expression in the single colonies was quantified at the mRNA level by RT-PCR and then quantified at the protein level by western blotting. Finally, the expressed current was analyzed by patch clamp method. Cell lines expressing a current of 200 pA or more per cell were selected as channel-expressing cell lines for activity measurement by patch clamp method.
(3) Measurement of Ion Channel Current by Patch Clamp Method (Human Kv1.5-Expressing CHO-K1 Cell Line)
An experiment was carried out using a patch clamp setup at room temperature (20 to 26° C.). A perfusion chamber having a diameter of 20 mm (flow rate: about 5 ml/min) was mounted on the stage of a phase-contrast inverted microscope (produced by Nikon Corporation) placed on a vibration isolated table. A poly-L-lysine (produced by Sigma)-coated coverslip (diameter: 15 mm, produced by Matsunami Glass Ind., Ltd.) on which human Kv1.5-expressing cells were cultured was placed in the perfusion chamber.
Depolarizing stimulation pulses were applied and ionic current was recorded by using a patch clamp amplifier (EPC-7 or EPC-7 PLUS, produced by HEKA) and a personal computer (manufactured by IBM Corp.) in which software for data acquisition and analysis of ion channel current (PULSE 8.77, produced by HEKA) was installed. The current was measured in the whole-cell configuration of the patch-clamp technique. The tip (resistance: 2 to 4 MΩ) of a borosilicate glass pipette (produced by Sutter Instrument Co.) was gently placed on the cell membrane by using a three-dimensional mechanical micromanipulator (produced by Shoshin EM Corporation). […] Subsequently, stronger suction was applied to break the cell membrane. The capacitative current derived from the cell membrane was corrected using a patch clamp amplifier. Subsequently, the series resistance (Rs) between the pipette and the interior of the cell was measured and corrected.
The composition of the extracellular solution used is shown below. Unless otherwise specified, these components were obtained from Wako Pure Chemical Industries, Ltd.
Each test compound was prepared as a 1000-fold concentrated stock solution that was dissolved in DMSO and then diluted in the extracellular solution.
The composition of the electrode internal solution used is shown below. Unless otherwise specified, these components were obtained from Wako Pure Chemical Industries, Ltd.
(5) Measurement of Human Kv1.5 Current
While the membrane potential was bolded at −80 mV, depolarizing pulses (−80 mV for 0.05 seconds→+40 mV for 0.2 seconds →−40 mV for 0.2 seconds→−80 mV for 0.05 seconds) were applied at a stimulation frequency of 1 Hz to measure Kv1.5 channel current. More specifically, first, while perfusing an extracellular solution containing 0.1% DMSO and holding the membrane potential at −80 mV, depolarizing pulses were applied. The current obtained during the pulse application was recorded as a current in the absence of the test compounds. […]
(In general: In patch-clamp work, channel activity is measured electrically.)

T1 sequence (P22460 whole entry): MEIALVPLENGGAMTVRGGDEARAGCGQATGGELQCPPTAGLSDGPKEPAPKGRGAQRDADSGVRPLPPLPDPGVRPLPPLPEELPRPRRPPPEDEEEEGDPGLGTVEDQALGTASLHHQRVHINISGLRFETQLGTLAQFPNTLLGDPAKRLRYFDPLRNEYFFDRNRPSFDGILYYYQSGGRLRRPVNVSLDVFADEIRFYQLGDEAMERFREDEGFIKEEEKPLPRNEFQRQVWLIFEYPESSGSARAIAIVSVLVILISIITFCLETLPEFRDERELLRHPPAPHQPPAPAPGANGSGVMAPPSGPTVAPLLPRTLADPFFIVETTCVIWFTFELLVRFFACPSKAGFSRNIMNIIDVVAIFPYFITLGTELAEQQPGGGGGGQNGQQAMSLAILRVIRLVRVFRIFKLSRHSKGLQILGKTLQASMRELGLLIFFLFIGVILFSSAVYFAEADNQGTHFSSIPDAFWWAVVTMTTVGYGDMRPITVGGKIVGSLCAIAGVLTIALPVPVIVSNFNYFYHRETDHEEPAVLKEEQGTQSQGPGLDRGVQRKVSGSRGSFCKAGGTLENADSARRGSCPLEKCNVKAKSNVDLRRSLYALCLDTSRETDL

Consider `CCN1C(=O)C(C)(C)C(=O)N(C)c2cc(OCCCN(CCn3ccc4ccoc4c3=O)Cc3cccs3)ccc21` [Example 417], for which the IC50 (in general, the concentration that inhibits the measured activity by half) amounted to 180 nM.
As for `CCN1C(=O)C(C)(C)C(=O)N(C)c2cc(OCCCN(CCn3ccc4oc(C)cc4c3=O)Cc3ccncc3)ccc21` [Example 464, 1-ethyl-3,3,5-trimethyl-7-(3-{[2-(2-methyl-4-oxo-4H-furo[3,2-c]pyridin-5-yl)ethyl]pyridin-4-ylmethylamino}propoxy)-1,5-dihydrobenzo[b][1,4]diazepine-2,4-dione dihydrochloride], half-maximal inhibition (IC50) was put at 440 nM.
For `CCN1C(=O)C(C)(C)C(=O)N(C)c2cc(OCCCN(CCn3ccc4ccoc4c3=O)Cc3ccccc3C)ccc21` [Example 398] the value was 220 nM; for `CCN1C(=O)C(C)(C)C(=O)N(C)c2cc(OCCCN(CCn3ccc4ccoc4c3=O)Cc3ccncc3)ccc21` [Example 31, 1-ethyl-3,3,5-trimethyl-7-(3-{[2-(7-oxo-7H-furo[2,3-c]pyridin-6-yl)ethyl]pyridin-4-ylmethylamino}propoxy)-1,5-dihydrobenzo[b][1,4]diazepine-2,4-dione dihydrochloride], 1300 nM; for `CCN1C(=O)C(C)(C)C(=O)N(C)c2cc(OCCCN(CCc3cccnc3)Cc3ccccc3)ccc21` [Example 200], 290 nM.
For `CN1C(=O)C(C)(C)C(=O)N(C)c2cc(OCCCN(CCc3cccnc3)Cc3ccnc4ccccc34)ccc21` [Example 51, 1,3,3,5-tetramethyl-7-{3-[(2-pyridin-3-ylethyl)-(quinolin-4-ylmethyl)amino]propoxy}-1,5-dihydrobenzo[b][1,4]diazepine-2,4-dione trihydrochloride] the value was 210 nM.
The figure for `CCN1C(=O)C(C)(C)C(=O)N(C)c2cc(OCCCN(CCn3ccc4ccccc4c3=O)Cc3ccc(C#N)cc3)ccc21` [Example 85] is 150 nM.
Regarding `CCN1C(=O)C(C)(C)C(=O)N(C)c2cc(OCCCN(CCc3cccnc3)Cc3ccccc3-c3cccnc3)ccc21` [Example 242], it took 180 nM to reach half-maximal inhibition (IC50).
`CCN1C(=O)C(C)(C)C(=O)N(C)c2cc(OCCCN(CCn3c(=O)ccc4ccccc43)Cc3ccncc3)ccc21` [Example 63, 1-ethyl-3,3,5-trimethyl-7-(3-{[2-(2-oxo-2H-quinolin-1-yl)ethyl]pyridin-4-ylmethylamino}propoxy)-1,5-dihydrobenzo[b][1,4]diazepine-2,4-dione]: the IC50 was found to be 240 nM.
The figure for `CCN1C(=O)C(C)(C)C(=O)N(C)c2cc(OCCCN(CCn3ccc4occc4c3=O)Cc3ccc(C)nc3C)ccc21` [Example 629, 7-(3-{(2,6-dimethylpyridin-3-ylmethyl)-[2-(4-oxo-4H-furo[3,2-c]pyridin-5-yl)ethyl]amino}propoxy)-1-ethyl-3,3,5-trimethyl-1,5-dihydrobenzo[b][1,4]diazepine-2,4-dione dihydrochloride] is 760 nM.
Consider `CCN1C(=O)C(C)(C)C(=O)N(C)c2cc(OCCCN(CCn3ccc4oc(C)cc4c3=O)Cc3cnccc3C)ccc21` [Example 573, 1-ethyl-3,3,5-trimethyl-7-{3-[[2-(2-methyl-4-oxo-4H-furo[3,2-c]pyridin-5-yl)ethyl]-(4-methylpyridin-3-ylmethyl)amino]propoxy}-1,5-dihydrobenzo[b][1,4]diazepine-2,4-dione], for which half-maximal inhibition (IC50) required 330 nM.
Regarding `CCN1C(=O)C(C)(C)C(=O)N(CC)c2cc(OCCCN(CCc3cccnc3)Cc3ccncc3)ccc21` [Example 14, 1,5-diethyl-3,3-dimethyl-7-{3-[(2-pyridin-3-ylethyl)pyridin-4-ylmethylamino]propoxy}-1,5-dihydrobenzo[b][1,4]diazepine-2,4-dione trihydrochloride], half-maximal inhibition (IC50) was put at 580 nM.
The figure for `CCCN1C(=O)C(C)(C)C(=O)N(C)c2cc(OCCCN(CCc3cccnc3)Cc3ccncc3)ccc21` [Example 10, 3,3,5-trimethyl-1-propyl-7-{3-[(2-pyridin-3-ylethyl)pyridin-4-ylmethylamino]propoxy}-1,5-dihydrobenzo[b][1,4]diazepine-2,4-dione trihydrochloride] is 580 nM; for `CCCc1ncccc1CN(CCCOc1ccc2c(c1)N(C)C(=O)C(C)(C)C(=O)N2CC)CCn1ccc2oc(C)cc2c1=O` [Example 611, 1-ethyl-3,3,5-trimethyl-7-{3-[[2-(2-methyl-4-oxo-4H-furo[3,2-c]pyridin-5-yl)ethyl]-(2-propylpyridin-3-ylmethyl)amino]propoxy}-1,5-dihydrobenzo[b][1,4]diazepine-2,4-dione dihydrochloride] it is 310 nM; for `CN1C(=O)C(C)(C)C(=O)N(C)c2cc(OCCCN(CCc3cccnc3)Cc3ccncc3)ccc21` [Example 19, 1,3,3,5-tetramethyl-7-{3-[(2-pyridin-3-ylethyl)pyridin-4-ylmethylamino]propoxy}-1,5-dihydrobenzo[b][1,4]diazepine-2,4-dione trihydrochloride] it is 540 nM.
As for `CN(CCN(CCCOc1ccc2c(c1)N(C)C(=O)C(C)(C)C(=O)N2C)Cc1ccncc1)C(=O)c1ccccc1` [Example 45, N-methyl-N-(2-{pyridin-4-ylmethyl-[3-(1,3,3,5-tetramethyl-2,4-dioxo-2,3,4,5-tetrahydro-1H-benzo[b][1,4]diazepin-7-yloxy)propyl]amino}ethyl)benzamide dihydrochloride], 690 nM corresponded to half-maximal inhibition (IC50).
In turn, `CCN1C(=O)C(C)(C)C(=O)N(C)c2cc(OCCCN(CCc3cccnc3)C(=O)c3ccccc3)ccc21` [Example 633, N-[3-(1-ethyl-3,3,5-trimethyl-2,4-dioxo-2,3,4,5-tetrahydro-1H-benzo[b][1,4]diazepin-7-yloxy)propyl]-N-(2-pyridin-3-ylethyl)benzamide hydrochloride] showed an IC50 of 1100 nM.
The figure for `CCN1C(=O)C(C)(C)C(=O)N(C)c2cc(OCCCN(CCn3ccc4ccoc4c3=O)Cc3ccc(C#N)cc3)ccc21` [Example 380] is 160 nM.
The figure for `CCN1C(=O)C(C)(C)C(=O)N(C)c2cc(OCCCN(CCn3ccc4ccccc4c3=O)Cc3ccsc3)ccc21` [Example 125] is 190 nM; for `CCN1C(=O)C(C)(C)C(=O)N(C)c2cc(OCCCN(CCn3ccc4ccsc4c3=O)Cc3ccncc3)ccc21` [Example 68, 1-ethyl-3,3,5-trimethyl-7-(3-{[2-(7-oxo-7H-thieno[2,3-c]pyridin-6-yl)ethyl]pyridin-4-ylmethylamino}propoxy)-1,5-dihydrobenzo[b][1,4]diazepine-2,4-dione] it is 380 nM.
Compound `CCN1C(=O)C(C)(C)C(=O)N(C)c2cc(OCCCN(CCn3ccc4sccc4c3=O)Cc3cccnc3)ccc21` [Example 568, 1-ethyl-3,3,5-trimethyl-7-(3-{[2-(4-oxo-4H-thieno[3,2-c]pyridin-5-yl)ethyl]pyridin-3-ylmethylamino}-propoxy)-1,5-dihydrobenzo[b][1,4]diazepine-2,4-dione] returned an IC50 of 420 nM.
The figure for `Cc1ccccc1CN(CCCOc1ccc2c(c1)N(C)C(=O)C(C)(C)C(=O)N2C)CCc1cccnc1` [Example 50, 1,3,3,5-tetramethyl-7-{3-[(2-methylbenzyl)-(2-pyridin-3-ylethyl)amino]propoxy}-1,5-dihydrobenzo[b][1,4]diazepine-2,4-dione dihydrochloride] is 250 nM.

The values are drawn from patent publication US8664217B2, “Benzodiazepine compound and pharmaceutical composition” (Otsuka Pharmaceutical Co., Ltd., priority 2008, dated 2014).
